Assay results as given in patent publication US20230407243A1, “GENETIC PLATFORM TO INVESTIGATE THE FUNCTIONS OF BACTERIAL DRUG EFFLUX PUMPS” (priority 2022, published 2023).

Columns and labels:
Assay type in all cases: cell-based, Escherichia coli
E. coli EKO-35 = assay: microbe, parasite or virus in culture
Method in brief: (§1)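 Turbidity (OD600, pre-incubation subtracted) defined growth after 18 h at 37 °C in MHB II. The inoculum was diluted 1/2000 from an OD600 ~1.0 PBS suspension of an overnight LB culture. Compounds were run as duplicate twofold dilutions.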

E. coli ΔtolC = assay: microbe, parasite or virus in culture; details: technical duplicate
Method in brief: as §1

[1] = tested on: wild-type E. coli K-12 str. BW25113; assay: microbe, parasite or virus in culture; details: technical duplicate
Method in brief: as §1

EKO-35 araC::emrAB = assay: MIC susceptibility profiling, efflux platform
Method in brief: as §1

EKO-35 araC::mdtEF = assay: MIC susceptibility profiling, efflux platform
Method in brief: as §1

EKO-35 araC::acrD = assay: MIC susceptibility profiling, efflux platform
Method in brief: as §1

EKO-35 araC::macAB = assay: MIC susceptibility profiling, efflux platform
Method in brief: as §1

EKO-35 araC::acrB = assay: MIC susceptibility profiling, efflux platform
Method in brief: as §1

EKO-35 araC::acrEF = assay: MIC susceptibility profiling, efflux platform
Method in brief: as §1

EKO-35 araC::emrKY = assay: MIC susceptibility profiling, efflux platform
Method in brief: as §1

[2] = tested on: EKO-35 araC::mexCD (MexCD from P. aeruginosa); assay: MIC susceptibility profiling, efflux platform
Method in brief: as §1

EKO-35 araC::acrBD408A = assay: MIC susceptibility profiling, efflux platform
Method in brief: as §1

EKO-35 araC::mdtBC = assay: MIC susceptibility profiling, efflux platform
Method in brief: as §1

wild-type (WT) K-12-Pore = assay: microbe, parasite or virus in culture; details: technical duplicate
Method in brief: (§2)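 MIC values come from background-corrected OD600 readings (pre-incubation OD subtracted) after 18 h at 37 °C and 900 rpm in MHB II. Compounds were tested in duplicate as 2-fold dilutions. The inoculum came from 18 h LB cultures adjusted to OD600 ~1.0 and diluted 1/2000, and the pore-bearing strains were vancomycin-checked beforehand.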

ΔtolC-Pore = assay: microbe, parasite or virus in culture; details: technical duplicate
Method in brief: as §2

EKO-35 araC::emrKY Pore = assay: MIC susceptibility profiling, porinated efflux platform
Method in brief: as §2

[3] = tested on: EKO-35 araC::acrBD408A Pore; assay: as above
Method in brief: as §2

EKO-35 araC::acrD Pore = assay: as above
Method in brief: as §2

EKO-35-Pore = assay: MIC susceptibility profiling, porinated strain
Method in brief: as §2

[4] = Table 13A, non-porinated, technical duplicate
[5] = Table 13B, non-porinated, technical duplicate
[6] = Table 14A, porinated, technical duplicate

With `CC(C)c1ccc(C=C(C#N)c2nc3ccccc3[nH]2)cc1` [compound 12] the “Fold change of MICs” value (E. coli EKO-35; EKO-35 compared to EKO-35 (reference)) was 1 fold, the “Minimum inhibitory concentration (MIC), EKO-35” value (E. coli EKO-35; Table 10, without pore, technical duplicate) was 320 µg/mL and the “Minimum Inhibitory Concentration, EKO-35” value (E. coli EKO-35; [4]) was 320 µg/mL. The “Minimum inhibitory concentration (MIC), ΔtolC” value (E. coli ΔtolC; Table 10, without pore) was 1.25 µg/mL, the “Minimum Inhibitory Concentration, ΔtolC” value (E. coli ΔtolC; Table 13A, non-porinated) was 1.25 µg/mL and the “Minimum inhibitory concentration (MIC), K-12” value ([1]; Table 10, without pore) was 320 µg/mL. The “Minimum Inhibitory Concentration, K-12” value ([1]; Table 13A, non-porinated) was 320 µg/mL, the “Fold change of MICs” value (EKO-35 araC::emrAB; EKO-35 araC::emrAB compared to EKO-35) was 1 fold and the “Minimum Inhibitory Concentration, EKO-35 araC::emrAB” value (EKO-35 araC::emrAB; [5]) was 320 µg/mL. The “Fold change of MICs” value (EKO-35 araC::mdtEF; EKO-35 araC::mdtEF compared to EKO-35) was 1 fold, the “Minimum Inhibitory Concentration, EKO-35 araC::mdtEF” value (EKO-35 araC::mdtEF; [4]) was 320 µg/mL and the “Fold change of MICs” value (EKO-35 araC::acrD; EKO-35 araC::acrD compared to EKO-35) was 1 fold. The “Minimum Inhibitory Concentration, EKO-35 araC::acrD” value (EKO-35 araC::acrD; [4]) was 320 µg/mL, the “Fold change of MICs” value (EKO-35 araC::macAB; EKO-35 araC::macAB compared to EKO-35) was 1 fold and the “Minimum Inhibitory Concentration, EKO-35 araC::macAB” value (EKO-35 araC::macAB; [5]) was 320 µg/mL. For the same compound, the “Fold change of MICs” value (EKO-35 araC::acrB; EKO-35 araC::acrB compared to EKO-35) was 1 fold, the “Minimum Inhibitory Concentration, EKO-35 araC::acrB” value (EKO-35 araC::acrB; [4]) was 320 µg/mL and the “Fold change of MICs” value (EKO-35 araC::acrEF; EKO-35 araC::acrEF compared to EKO-35) was 1 fold. The “Minimum Inhibitory Concentration, EKO-35 araC::acrEF” value (EKO-35 araC::acrEF; [4]) was 320 µg/mL, the “Fold change of MICs” value (EKO-35 araC::emrKY; EKO-35 araC::emrKY compared to EKO-35) was 1 fold and the “Minimum Inhibitory Concentration, EKO-35 araC::emrKY” value (EKO-35 araC::emrKY; [5]) was 320 µg/mL. For the same compound, the “Fold change of MICs” value ([2]; EKO-35 araC::mexCD compared to EKO-35) was 1 fold, the “Minimum Inhibitory Concentration, EKO-35 araC::mexCD” value [2, 5] was 320 µg/mL and the “Fold change of MICs” value (EKO-35 araC::acrBD408A; EKO-35 araC::acrBD408A compared to EKO-35) was 1 fold. For the same compound, the “Minimum Inhibitory Concentration, EKO-35 araC::acrBD408A” value (EKO-35 araC::acrBD408A; [5]) was 320 µg/mL, the “Fold change of MICs” value (EKO-35 araC::mdtBC; EKO-35 araC::mdtBC compared to EKO-35) was 1 fold and the “Minimum Inhibitory Concentration, EKO-35 araC::mdtBC” value (EKO-35 araC::mdtBC; [5]) was 320 µg/mL. The “Minimum inhibitory concentration (MIC), Pore K-12” value (wild-type (WT) K-12-Pore; Table 10, with pore) was 320 µg/mL, the “Minimum inhibitory concentration, K-12 (WT)-Pore” value (wild-type (WT) K-12-Pore; Table 14A, porinated) was 320 µg/mL and the “Minimum inhibitory concentration (MIC), Pore ΔtolC” value (ΔtolC-Pore; Table 10, with pore) was 0.625 µg/mL. For the same compound, the “Minimum inhibitory concentration, ΔtolC-Pore” value (ΔtolC-Pore; Table 14A, porinated) was 0.625 µg/mL, the “Fold changes of MICs” value (EKO-35 araC::emrKY Pore; EKO-35 araC::emrKY Pore compared to EKO-35-Pore) was 2 fold and the Minimum inhibitory concentration (EKO-35 araC::emrKY Pore; EKO-35 araC::emrKY Pore, technical duplicate) was 320 µg/mL. For the same compound, the “Fold changes of MICs” value ([3]; EKO-35 araC::acrBD408A Pore compared to EKO-35-Pore) was 2 fold, the Minimum inhibitory concentration ([3]; EKO-35 araC::acrBD408A Pore, technical duplicate) was 320 µg/mL and the “Fold changes of MICs” value (EKO-35 araC::acrD Pore; EKO-35 araC::acrD Pore compared to EKO-35-Pore) was 1 fold. The “Minimum inhibitory concentration, EKO-35 araC::acrD Pore” value (EKO-35 araC::acrD Pore; [6]) was 160 µg/mL, the “Fold changes of MICs” value (EKO-35-Pore; EKO-35-Pore compared to EKO-35-Pore (reference)) was 1 fold and the “Minimum inhibitory concentration (MIC), Pore EKO-35” value (EKO-35-Pore; Table 10, with pore, technical duplicate) was 160 µg/mL. The “Minimum inhibitory concentration, EKO-35-Pore” value (EKO-35-Pore; [6]) was 160 µg/mL.
